Results: patent US8343934B2, “Diverse lead compound autotaxin inhibitors” (University of Memphis, priority 2009, dated 2013)

Biological target: T1, ATX (Homo sapiens, UniProt Q13822)
T1 construct: conditioned serum-free medium (CCM) from MDA-MB-435 cells as the source of ATX; endogenous in cells; host or cells: MDA-MB-435 cells (about 10x concentrated conditioned serum-free medium)
Test: ATX inhibition assay (FS-3 substrate)
Format: biochemical
Conditions: for % ATX Acitivity (10 μM): 10 μM compound; for % ATX Acitivity (10 μM) / IC50: FS-3 substrate; for % Response: preliminary screen, FS-3 hydrolysis at one hour, normalized to vehicle control, mean±S.D., same values given at 10 μM in Table 5
Experimental: ATX inhibition was assayed using the substrate FS-3 (Echelon Biosciences, Inc., Salt Lake City, Utah, USA). The FS-3 assay used ˜10 times concentrated conditioned serum-free medium (CCM) from MDA-MB-435 cells as the source of ATX, while CCM comprised one-third of the total volume. The final volume for FS-3 was comprised of the substrate at varying concentrations and 30 μM charcoal-stripped fatty acid free BSA (Sigma Aldrich) in assay buffer (1 mM each CaCl2 and MgCl2, 5 mM KCl, 140 mM NaCl, 50 mM Tris pH 8.0).
All assays were performed in 96-well plates with data read at 1 minute intervals by a Synergy2 system (BioTek, Winooski, Vt.). The fluorescence produced upon the hydrolysis of FS-3 was monitored using an excitation wavelength of 485 nm and an emission wavelength of 528 nm at 37° C. (Ferguson et al., 2006). […] All readings were normalized to vehicle control after subtraction of fluorescence in the absence of CCM. Data are shown as the mean±S.D. of at least three wells.

[1] = Calculated IC50 data for the 30 active compounds

SMILES | % Response | also measured
Cc1cc(C(O)(c2ccc(Nc3ccccc3)cc2)c2ccc(Nc3ccc(S(=O)(=O)O)cc3)cc2)ccc1N (stereo not shown) [NSC 5014] |  | % ATX Acitivity (10 μM): 39 ± 4.3%; IC50 (Table 5): 1.27 µM
O=C1C(Cl)=C(Nc2ccc(C(=O)Nc3ccc4cc(S(=O)(=O)O)cc(S(=O)(=O)O)c4c3)cc2)C(=O)C(Cl)=C1Nc1ccc(C(=O)Nc2ccc3cc(S(=O)(=O)O)cc(S(=O)(=O)O)c3c2)cc1 [NSC 12859] |  | % ATX Acitivity (10 μM): 27 ± 2.8%; IC50 (Table 5): 0.805 µM
Nc1ccc2cc(S(=O)(=O)O)c(/N=N/c3ccc(-c4ccc(/N=N/c5c(S(=O)(=O)O)cc6cc(S(=O)(=O)O)cc(N)c6c5O)cc4)cc3)c(O)c2c1 [NSC 75779] |  | % ATX Acitivity (10 μM): 20 ± 5.7%; IC50 (Table 5): 1.26 µM
Nc1ccc(/N=N/c2ccc(-c3ccc(/N=N/c4c(S(=O)(=O)O)cc5cc(S(=O)(=O)O)c(/N=N/c6ccc([N+](=O)[O-])cc6)c(N)c5c4O)cc3)cc2)c2ccc(S(=O)(=O)O)cc12 [NSC 77520] |  | % ATX Acitivity (10 μM): 32 ± 2.7%; IC50: 4.07 µM
CC(C)(C)OC(=O)NC(CC(Cc1ccccc1)C(=O)O)C(=O)NC(CC(Cc1ccccc1)C(=O)O)C(=O)NC(CC(Cc1ccccc1)C(=O)O)C(=O)NCC(=O)Oc1ccc([N+](=O)[O-])cc1 (stereo not shown) [NSC 341348] |  | % ATX Acitivity (10 μM): 43 ± 2.8%; IC50: 2.5 µM
O=S(=O)(O)c1cc(O)c2ccc(Nc3ccc4c(O)cc(S(=O)(=O)O)cc4c3)cc2c1 [compound 1698] | 89 ± 5.1% | 
Nc1ccc(C(=O)Nc2ccc(C(=O)Nc3ccc4c(O)cc(S(=O)(=O)O)cc4c3)cc2)cc1 [compound 1741] | 60 ± 4.6% | 
O=C(CC(C(=O)O)S(=O)(=O)O)Nc1ccc(S(=O)(=O)c2ccc(NC(=O)CC(C(=O)O)S(=O)(=O)O)cc2)cc1.[Na+] (stereo not shown) [compound 2460] | 99 ± 3.1% | 
O=C(NC(CSSCC(NC(=O)c1ccc([N+](=O)[O-])cc1)C(=O)O)C(=O)O)c1ccc([N+](=O)[O-])cc1 (stereo not shown) [compound 2532] | 95 ± 5.7% | 
CC(=O)NS(=O)(=O)c1ccc(NC(=O)c2ccccc2C(=O)O)cc1 [compound 4368] | 99 ± 2.8% | 
Cc1c(N)cc(S(=O)(=O)O)cc1NC(=O)c1cccc([N+](=O)[O-])c1 [compound 5000] | 100 ± 5.5% | 
Cc1cc(C(O)(c2ccc(Nc3ccccc3)cc2)c2ccc(Nc3ccc(S(=O)(=O)O)cc3)cc2)ccc1N.[Na+] (stereo not shown) [compound 5014] | 39 ± 4.3% | IC50 [1]: 1.27 µM
O=C(O)c1ccccc1N=N/C(=N\Nc1cc(S(=O)(=O)O)ccc1O)c1ccccc1 [compound 5359] | 94 ± 2.6% | 
Nc1c(N=Nc2ccc([N+](=O)[O-])cc2)c(S(=O)(=O)O)cc2cc(S(=O)(=O)O)c(N=Nc3ccc(-c4ccc(N=Nc5ccc(O)cc5)cc4)cc3)c(O)c12.[Na+] [compound 7234] | 49 ± 6.1% | IC50 [1]: 7.02 µM
O=C(O)c1ccc2c(c1Nc1ccc(-c3ccc(Nc4c(C(=O)O)ccc5c4C(=O)c4ccccc4C5=O)cc3)cc1)C(=O)c1ccccc1C2=O [compound 7581] | 70 ± 4.8% | 
Cc1ccc(Nc2ccc(Nc3ccc(C)cc3S(=O)(=O)[O-])c3c2C(=O)c2ccccc2C3=O)c(S(=O)(=O)[O-])c1.[Na+].[Na+] [compound 7795] | 99 ± 5.0% | 
Cc1ccc(Nc2cccc3c2C(=O)c2cccc(Nc4ccc(C)c(S(=O)(=O)O)c4)c2C3=O)cc1S(=O)(=O)O [compound 7804] | 96 ± 6.4% | 
Cc1cc(-c2ccc(N=Nc3c(N)c(S(=O)(=O)O)cc4cc(S(=O)(=O)O)ccc34)c(C)c2)ccc1N=Nc1cc(S(=O)(=O)O)c2ccccc2c1N [compound 7815] | 32 ± 5.5% | IC50 [1]: 13.4 µM
O=C(Nc1cc[c]([Sb](=[O])([OH])[OH])cc1)Nc1cc[c]([Sb](=[O])([OH])[OH])cc1 [compound 15408] | 100 ± 7.9% | 

Continued, in another order:

% Response | SMILES | also measured
110 ± 5.7% | Nc1c(N=Nc2ccc([N+](=O)[O-])cc2)c(S(=O)(=O)O)cc2cc(S(=O)(=O)O)c(N=Nc3ccccc3)c(O)c12 [compound 7820] | 
88 ± 9.2% | O=C1C(c2[nH]c3ccc(S(=O)(=O)O)cc3c2O)=Nc2ccc(S(=O)(=O)O)cc21 [compound 8646] | 
55 ± 5.5% | Nc1c(N=Nc2ccc([N+](=O)[O-])cc2)c(S(=O)(=O)[O-])cc2cc(S(=O)(=O)[O-])c(N=Nc3ccc(-c4ccc(N=Nc5ccc(O)c(C(=O)[O-])c5)cc4)cc3)c(O)c12.[Na+].[Na+].[Na+] [compound 8681] | 
52 ± 7.7% | CCOc1ccc(N=c2ccc3c(-c4c(Cl)ccc(Cl)c4C(=O)O)c4ccc(Nc5ccc(OCC)cc5S(=O)(=O)O)cc4oc-3c2)cc1.[Na+] [compound 8682] | 
73 ± 3.7% | O=C(O)c1ccccc1-c1c2ccc(=Nc3ccccc3)cc-2oc2cc(Nc3ccc(S(=O)(=O)O)cc3)ccc12.[Na+] [compound 11242] | 
49 ± 6.1% | Nc1c(S(=O)(=O)[O-])cc2cc(S(=O)(=O)[O-])ccc2c1N=Nc1ccc(-c2ccc(N=Nc3c(N)c(S(=O)(=O)[O-])cc4cc(S(=O)(=O)[O-])ccc34)c(S(=O)(=O)[O-])c2)cc1.[Na+].[Na+].[Na+].[Na+].[Na+] [compound 11243] | IC50 [1]: 12.6 µM
78 ± 7.0% | Nc1ccc2cc(S(=O)(=O)O)cc(O)c2c1N=Nc1ccc(NC(=O)Nc2ccc(N=Nc3c(N)ccc4cc(S(=O)(=O)O)cc(O)c34)c(S(=O)(=O)O)c2)cc1S(=O)(=O)O [compound 11244] | 
42 ± 6.0% | Cc1cc(S(=O)(=O)O)ccc1N=c1ccc2c(-c3ccccc3C(=O)[O-])c3ccc(Nc4ccccc4C)cc3oc-2c1.[Na+] [compound 11246] | IC50 [1]: 10.2 µM
57 ± 6.5% | O=C(Nc1ccc(S(=O)(=O)c2ccc(NC(=O)Nc3ccc4cc(S(=O)(=O)O)ccc4c3)cc2)cc1)Nc1ccc2cc(S(=O)(=O)O)ccc2c1.[Na+] [compound 12149] | 
105 ± 8.0% | O=C(Nc1ccc(C(=O)Nc2cc(S(=O)(=O)O)cc3cccc(S(=O)(=O)O)c23)cc1)Nc1ccc(C(=O)Nc2cc(S(=O)(=O)O)cc3cccc(S(=O)(=O)O)c23)cc1.[Na+] [compound 12188] | 
71 ± 5.4% | O=C(Nc1cccc(C(=O)Nc2ccc3cc(S(=O)(=O)O)cc(S(=O)(=O)O)c3c2)c1)Nc1cccc(C(=O)Nc2ccc3cc(S(=O)(=O)O)cc(S(=O)(=O)O)c3c2)c1.[Na+] [compound 12856] | 
100 ± 7.3% | O=C(Nc1ccc2cc(S(=O)(=O)O)cc(S(=O)(=O)O)c2c1)Nc1ccc2cc(S(=O)(=O)O)cc(S(=O)(=O)O)c2c1.[Na+] [compound 12857] | 
98 ± 7.4% | COc1ccc(C(=O)Nc2ccc(/C=C/c3ccc(NC(=O)c4ccc(OC)cc4)cc3S(=O)(=O)O)c(S(=O)(=O)O)c2)cc1.[Na+] [compound 12858] | 
27 ± 2.8% | O=C1C(Cl)=C(Nc2ccc(C(=O)Nc3ccc4cc(S(=O)(=O)O)cc(S(=O)(=O)O)c4c3)cc2)C(=O)C(Cl)=C1Nc1ccc(C(=O)Nc2ccc3cc(S(=O)(=O)O)cc(S(=O)(=O)O)c3c2)cc1.[Na+] [compound 12859] | IC50 [1]: 0.805 µM
101 ± 9.0% | NS(=O)(=O)c1ccc(N=NNc2ccc(C(=O)O)cc2)cc1.[Na+] [compound 13232] | 
77 ± 9.8% | O=C(Nc1ccc2c(O)c(N=Nc3ccccc3)c(S(=O)(=O)[O-])cc2c1)Nc1ccc2c(O)c(N=Nc3ccccc3)c(S(=O)(=O)[O-])cc2c1.[Na+].[Na+] [compound 16223] | 
